Data taken from patent publication US8772265B2, “Water soluble curcumin compositions for use in anti-cancer and anti-inflammatory therapy” (Universite Libre de Bruxelles, priority 2008, dated 2014).
≈ marks a conversion by molar mass, not a printed value. Like-named read-outs stand apart in the source and are kept apart here.

Tests used:
U-373MG = assay: MTT test, overall cell growth, U-373MG; assay type: cell-based, human; details: read-out: IC50 U-373MG
Experimental: (§1) MTT tests were performed in order to rapidly, i.e. within 5 days, measure the effect of compounds of this invention on the overall cell growth. […] The amount of formazan obtained at the end of the experiment, measured by means of a spectrophotometer, is directly proportional to the number of living cells. Optical density determination thus enabled a quantitative measurement of the effect of the investigated compounds as compared to the control condition (untreated cells) and/or to other reference compounds. Six human cancer cell lines described in Table 5 were used in the following MTT tests. These cancer cell lines cover six histological cancer types, being prostate, glioma, pancreas, colon, lung, and breast cancers. To perform the assay, cells were allowed to grow in 96-well micro-wells with a flat bottom with an amount of 100 μl of cell suspension per well with 1,000 to 4,000 cells/well depending on the cell type used. Each cell line was seeded in its appropriate culture medium. […] Each experiment was performed in sextaplicates. […] The micro-wells were subsequently incubated during 3 hours at 37° C. and centrifuged at 400 g during 10 minutes. MTT was removed and formazan crystals formed were dissolved in 100 μl DMSO. The micro-wells were shaken for 5 minutes and read on a spectrophotometer at wavelengths of 570 nm (maximal formazan absorbance). For each experimental condition, the mean optical density was calculated, allowing the determination of the percentage of remaining living cells in comparison to the control.

LoVo = assay: MTT test, overall cell growth, LoVo; assay type: cell-based, human; details: read-out: IC50 LoVo
Experimental: as §1

physchem = details: aqueous with cosolvent or surfactant or cyclodextrin
MCF-7 = assay: MTT test, overall cell growth, MCF-7; assay type: cell-based, human; details: read-out: IC50 MCF-7
Experimental: as §1

A549 = assay: MTT test, overall cell growth, A549; assay type: cell-based, human; details: read-out: IC50 A549
Experimental: as §1

purified MPO = assay: Activity of purified MPO (SIEFED); assay type: biochemical; details: FIG. 17
Experimental: (§2) The ROS production and the release of MPO by activated neutrophils were measured by chemiluminescence and ELISA techniques, respectively (Franck et al., 2008, Physiol. Res. 57(4):577-87). The activity of purified MPO was measured by using an original method called […] (specific immune extraction followed by enzymatic detection) allowing the study of drug interaction with the enzyme without interferences of the medium (Franck et al., 2006, J Vet Diagn Invest, 18(4):326-34).

PC3 [1] = assay: MTT test, overall cell growth, PC3; assay type: cell-based, human; details: read-out: IC50 PC3
Experimental: as §1

[2] = system: isolated neutrophils stimulated by phorbol myristate acetate (PMA); assay: MPO release by activated neutrophils (ELISA); assay type: cell-based; details: FIG. 18
Experimental: as §2

BxPC3 = assay: MTT test, overall cell growth, BxPC3; assay type: cell-based, human; details: read-out: IC50 BxPC3
Experimental: as §1

U-373 MG = assay: Cellular imaging (phase-contrast videomicroscopy), U-373 MG; assay type: cell-based, human; details: 10 μM, 72 h, global growth ratio
Experimental: (§3) Cellular imaging relied on the use of computer-assisted phase-contrast microscopy making possible to film the behavior of living cells in culture dishes for several days. […] The experiment was conducted in quadruplicates. The behaviour of the cells, in terms of morphology, growth/death and migration were thus investigated. The analysis of the films was performed by two operators, working independently. The effect on cell migration was characterized as +++ (high effect: cell migration of most cells is drastically altered for most of the duration of the film), ++ (medium effect: compound altering cell migration of an important proportion of the cells although less drastically), + (low effect: compound affecting cell migration of a small part of the cell population, or only for a limited part of the 72 h incubation), - (no effect: as compared to the control conditions, no difference is observed). The effect on cell morphology was characterized by the same way. The effect on the overall growth was measured by counting the number of cells on the first (0 h) and the last image (72 h) of each film. The global growth ratio (GGR) was then deduced by dividing the number of cells on the last image by the number of cells on the first image. The ratio […], was further calculated thereby obtaining a value that describes the effect of compounds of the present invention on the overall cell growth.

[3] = Solubilities in water (20° C.); assay type: physicochemical
Source text: The compound according to the invention allows therefore to increase the solubility of curcumin derivatives in aqueous solutions which in turn enables IV administrations and/or increases their bioavailability. The table below presents the solubilities of the various intermediates.

PC3 [4] = assay: Cellular imaging (phase-contrast videomicroscopy), PC3; assay type: cell-based, human; design: key to effect on cell morphology / effect on cell migration: +++: high effect: cell migration of most cells is drastically altered for most of the duration of the film; ++: medium effect: compound altering cell migration of an important proportion of the cells although less drastically; +: low effect: compound affecting cell migration of a small part of the cell population, or only for a limited part of the 72 h incubation; −: no effect: as compared to the control conditions, no difference is observed; details: PC3, 10 μM; for GGRtreated/GGRcontrol: 72 h, global growth ratio; for effect on cell morphology: characterized by the same way as migration
Experimental: as §3

[5] = system: isolated neutrophils stimulated by phorbol myristate acetate (PMA); assay: ROS production by PMA-stimulated isolated neutrophils (chemiluminescence); assay type: cell-based; details: FIG. 16
Experimental: as §2

[6] = Influence of different cyclodextrins on curcumin solubility; assay type: physicochemical; details: FIGS. 11a and 11b
[7] = system: SC-VII mouse head and neck cancer cells; assay: SC-VII mouse head and neck orthotopic cancer model, survival; assay type: in vivo; details: IP, NDS27 20 mg/kg 3 times per day, 5 days per week, 3 weeks, cisplatin 5 mg/kg 1 time per week, control vehicle
Experimental: To test the in vivo anti-cancer activity of the compound according to the invention, we made use of the SC-VII mouse head and neck orthotopic cancer model. SC-VII mouse head and neck cancer cells were cultivated in conventional culture medium containing supplementation in foetal calf serum and antibiotics (penicillin/streptomycin and gentamycin). 500 000 cancer cells were grafted in a serum free culture medium (50 μl) into the floor of the mouth of each mouse. 5 days after the graft, the 44 animals were divided into four groups of 11 mice. The treatments were as follows: • Group 1: mice treated with the vehicle alone (HP-beta-CD—L-Lysine solution) • Group 2: mice treated with cisplatin administered IP at the dosis of 5 mg/kg, 1 time per week during 3 weeks • Group 3: mice treated IP with the NDS27 compound according to the invention administered 3 times per day, 5 days per week during 3 weeks at the doses of 20 mg/kg • Group 4: mice treated with a combination of both treatments described for groups 2 and 3.
Mice were sacrificed when they lost 20% of their weight or when tumour reached 500 mm^2. Survival of the animals was followed and is illustrated in FIG. 8.

COc1cc(/C=C/C(=O)CC(=O)/C=C/c2ccc(O)c(OC)c2)ccc1O [curcumin]
IC50 (U-373MG; Homo sapiens, U373 MG, MTT, 72 hours, glioma cell line): 8.1 µM | IC50 (LoVo; Homo sapiens, LoVo, MTT, 72 hours, colon cancer cell line): 9.3 µM | solubility (physchem): ≤ 100 mM | IC50 (MCF-7; Homo sapiens, MCF7, MTT, 72 hours, breast cancer cell line): > 10 µM | IC50 (A549; Homo sapiens, A549, MTT, 72 hours, lung cancer cell line): > 10 µM | inhibitory effect on purified MPO activity (purified MPO): dose-dependent inhibitory effects | IC50 (PC3 [1]; Homo sapiens, PC-3, MTT, 72 hours, prostate cancer cell line): > 10 µM | effect on MPO release by activated neutrophils [2]: dose-dependent inhibitory effects | IC50 (BxPC3; Homo sapiens, BXPC-3, MTT, 72 hours, pancreas cancer cell line): 9.5 µM | GGRtreated/GGRcontrol (U-373 MG): 0.2 | solubility ([3]; Water (20° C.), read-out: solubility): ~0.0003 mg/mL (≈ 0.000814 mM) | GGRtreated/GGRcontrol (PC3 [4]): 0.5 | effect on cell morphology (PC3 [4]; filmed 72 h): + | inhibitory effect on ROS production / release [5]: dose-dependent inhibitory effects

NCCCC[C@H](N)C(=O)O [Lysine]
solubility ([3]; 20 °C, water): 640 mg/mL (≈ 4380 mM)

hydroxypropyl-beta-cyclodextrin complex of curcumin lysinate [NDS27]
solubility [3]: 10 mg/mL

Curcumin Lysinate
IC50 (U-373MG; MTT, 72 hours, glioma cell line): 10 µM | IC50 (LoVo; MTT, 72 hours, colon cancer cell line): > 10 µM | IC50 (MCF-7; MTT, 72 hours, breast cancer cell line): > 10 µM | IC50 (A549; MTT, 72 hours, lung cancer cell line): > 10 µM | inhibitory effect on purified MPO activity (purified MPO): dose-dependent inhibitory effects | IC50 (PC3 [1]; MTT, 72 hours, prostate cancer cell line): > 10 µM | effect on MPO release by activated neutrophils [2]: dose-dependent inhibitory effects | IC50 (BxPC3; MTT, 72 hours, pancreas cancer cell line): > 10 µM | GGRtreated/GGRcontrol (U-373 MG): 0.2 | GGRtreated/GGRcontrol (PC3 [4]): 0.4 | effect on cell migration (PC3 [4]; filmed 72 h): ++ | effect on cell morphology (PC3 [4]; filmed 72 h): ++ | inhibitory effect on ROS production / release [5]: dose-dependent inhibitory effects

CC(O)COC[C@H]1O[C@@H]2O[C@H]3[C@H](O)[C@@H](O)[C@@H](O[C@H]4[C@H](O)[C@@H](O)[C@@H](O[C@H]5[C@H](O)[C@@H](O)[C@@H](O[C@H]6[C@H](O)[C@@H](O)[C@@H](O[C@H]7[C@H](O)[C@@H](O)[C@@H](O[C@H]8[C@H](O)[C@@H](O)[C@@H](O[C@H]1[C@H](O)[C@H]2O)O[C@@H]8COCC(C)O)O[C@@H]7COCC(C)O)O[C@@H]6COCC(C)O)O[C@@H]5COCC(C)O)O[C@@H]4COCC(C)O)O[C@@H]3COCC(C)O (stereo partly drawn) [HP-beta-CD, hydroxypropyl-beta-cyclodextrin]
effect of the cyclodextrin on curcumin solubility [6]: clearly increase the solubility of curcumin | solubility [3]: 500 mg/mL (≈ 324 mM)

N.N.[Cl][Pt][Cl] [cisplatin]
T/C index (ratio of median survival of treated mice to control group) [7]: 163%

COc1cc(CCC(=O)CC(=O)CCc2ccc(O)c(OC)c2)ccc1O [Tetrahydrocurcumin, tetrahydrocurcumin]
IC50 (U-373MG; Homo sapiens, U373 MG, 72 h): > 10 µM | IC50 (LoVo; Homo sapiens, LoVo, 72 h): > 10 µM | IC50 (MCF-7; Homo sapiens, MCF7, 72 h): > 10 µM | IC50 (A549; Homo sapiens, A549, 72 h): > 10 µM | IC50 (PC3 [1]; Homo sapiens, PC-3, 72 h): > 10 µM | IC50 (BxPC3; Homo sapiens, BXPC-3, 72 h): > 10 µM
